# Results reported in patent US20120029078A1, “COMPOSITIONS COMPRISING MYRISTIC ACID AND USES THEREOF” (IMAGENETIX, INC., priority 2010, published 2012).
# Experiments:
# IL-12 = assay: LPS-activated cytokine release from human primary monocytes (xMAP Luminex): IL-12; assay type: cell-based; conditions: 24 hours
# Method: (§1) Cytokine release from monocytes was measured and assessed in order to determine the anti-inflammatory effects of cetylated fatty acids such as 1-TDC and non-cetylated fatty acids such as myristic acid. Human primary monocytes were provided by healthy subjects (n=7) who were not taking medication, had no medical condition, and no periodontal or gingival inflammation. None of the subjects were smokers and all subjects were of Caucasian origin with an age range of 24-51 years old. All patient samples were obtained after the approval of the Institutional Review Board at Boston University Medical Center.
# (§2) Fresh peripheral venous blood ([…]) was obtained by venipuncture into heparinized (10 U/mL) glass tubes. Monocytes were isolated using Ficoll-Hypaque density gradient centrifugation and separated from the other mononuclear cells (e.g., lymphocytes) by adherence for over 2 hours. Pure cell cultures were treated with various doses (10^−5-10^−9 M) of various types of fatty acids such as 1-TDC and myristic acid for 30 minutes. […] Supernatants were collected and stored at −80° C. until analyzed. […] Cytokine release (IL-1β, TNF-α, IL-6, IL-12, IL-8, and MCP-1) was analyzed by xMAP multiplexing technology using Luminex 100 Platform. […]
# P. gingivalis A7436 = assay: Antibacterial activity: viability of P. gingivalis by Live/Dead BacLight staining and flow cytometry; assay type: cell-based, Porphyromonas gingivalis; conditions: for antibacterial capacity (percentage of dead bacteria) compared with chlorhexidine: FIG. 1, positive control chlorhexidine (CHX) 0.04%
# Method: P. gingivalis A7436 was cultured on laced blood paromomycin agar plates and then transferred to Schaedler's broth. All cultures were grown at 37° C. under anaerobic conditions. In order to dissolve the 1-TDC and MA in an aqueous medium that can be utilized in carrying out the experiments, the following ingredients were used: ethanol (EtOH) and Methyl-β-cyclodextrin (Sigma-Aldrich, St. Louis, Mo.). More specifically, 750.0 mg of Methyl-β-cyclodextrin was dissolved in 5.0 mL of nano-pure water to get a concentration 150.0 mg/mL (MBC). The MBC solution was stored in the refrigerator at a temperature of 4° C. and was returned to room temperature before use. MA was prepared by dissolving 90.0 mg in 3.0 mL of ETOH, 2.4 mL of MBC, and 24.6 mL of SB in a sterile tube. The entire mixture was placed in a hot bath at 30° C. for 30 minutes. The final concentration of MA was 3.0 mg/mL.
# 2×10^7 cells were transferred to 5 mL culture tubes and treated with either 1-TDC or MA (1.0 mg/ml, 0.7 mg/mL, 0.5 mg/mL, 0.3 mg/mL, 0.1 mg/mL) or corresponding vehicle concentrations. A negative control was treated with additional Schaedler's broth. Tubes were incubated in anaerobic jars at 37° C. for several time points between 4-72 hours.
# After incubation, viability of the P. gingivalis cells was assessed. 1 mL of each sample was removed and spun down. Bacteria were resuspended in 1 mL of 0.85% NaCl solution. To generate a standard curve, half of the bacteria that was not treated with vehicle or compound were heat-killed for one hour and then mixed with live cells in known proportions (0%, 25%, 50%, 75% and 100% alive). The 100% live cells were used as the negative control. To assess the viability, a fluorescent based kit was used. Live/Dead BacLight Bacterial Viability Kit (Invitrogen L7012) allows for differentiation between alive and dead bacteria at a highly accurate and sensitive way. […]
# Samples were then run on the flow cytometer (FACScan). […] From these established regions, percent viability of the experimental samples were determined.
# TNF-α = assay: LPS-activated cytokine release from human primary monocytes (xMAP Luminex): TNF-α; assay type: cell-based
# Method: as §1
# (§3) Fresh peripheral venous blood ([…]) was obtained by venipuncture into heparinized (10 U/mL) glass tubes. Monocytes were isolated using Ficoll-Hypaque density gradient centrifugation and separated from the other mononuclear cells (e.g., lymphocytes) by adherence for over 2 hours. Pure cell cultures were treated with various doses (10^−5-10^−9 M) of various types of fatty acids such as 1-TDC and myristic acid for 30 minutes. Vehicle (5% ethyl alcohol), which was used to dissolve the compound into an aqueous preparation, was used as the negative control while dexamethasone (1 nM) was used as the positive control. After incubation with the test compound, half of the samples were treated with LPS from E. coli (100 ng/mL) as the activator of cell cytokine release over various time points (24 hours) at 37° C. under 5% CO2. Supernatants were collected and stored at −80° C. until analyzed. Each sample was prepared in triplicate. Cytokine release (IL-1β, TNF-α, IL-6, IL-12, IL-8, and MCP-1) was analyzed by xMAP multiplexing technology using Luminex 100 Platform. Data was presented as % inhibition over the vehicle's effect of LPS-mediated cell activation. Dexamethasone inhibition was taken as 100% inhibition.
# (§4) Cytokine release data were gathered at 6, 24, and 48 hour time points for monocyte/macrophages (FIGS. 3-5). Each experiment was repeated at least 3 times and data was presented as percentage of inhibition over the vehicle's effect of LPS-mediated cell activation.
# IL-6 = assay: LPS-activated cytokine release from human primary monocytes (xMAP Luminex): IL-6; assay type: cell-based; conditions: 24 hours
# Method: as §1, §2
# IL-8 = assay: LPS-activated cytokine release from human primary monocytes (xMAP Luminex): IL-8; assay type: cell-based; conditions: 24 hours
# Method: as §1, §2
# IFN-γ = assay: CD3/CD28-activated cytokine release from human primary T-lymphocytes: IFN-γ; assay type: cell-based; conditions: FIG. 7
# Method: Cytokine release from T-lymphocytes was measured and assessed in order to determine the anti-inflammatory effects of cetylated fatty acids such as 1-TDC and uncetylated fatty acids such as myristic acid. More specifically, the following compounds were tested: 1-TDC, 2-TDC, cetyl myristate (CM), myristic acid (MA), palmityl myristate (PM), palmityl oleate (PO), and palmityl myristoleate (PMO). For this experiment, peripheral blood mononuclear cells were isolated from healthy donors (n=8) with no known medication use by Ficoll-Hypaque density gradient centrifugation. Primary T-lymphocytes were separated from other mononuclear cells (e.g., monocytes) by negative selection using magnetic cell sorting (Dynal, Invitrogen) and pure cell cultures were treated with various doses of tested compounds for 30 minutes. The tested doses were 10^−5-10^−9M. Vehicle, which was used to dissolve the compounds into an aqueous preparation, was used as the negative control while dexamethasone (1 nM) was used as the positive control. After the incubation with test compounds, half the samples were treated with DynaBeads (Dynal, Invitrogen) coated with CD3 and CD28 antibodies as the activator of cell cytokine release. Cells were incubated over various time points at 37° C. under 5% CO2. Supernatants were collected at 24 and 48 hours and were stored at −80° C. until analyzed. Each sample was prepared in triplicates. The cytokine release was analyzed by xMAP multiplexing technology using Luminex 100 platform. This method allowed simultaneous analyses of all the cytokines proposed in this experiment. The following T-lymphocyte associated cytokines: IFN-γ, IL-2, IL-10, IL-5, and IL-4 were assessed. […] A paradigm shift between the cytokines by Th1 and Th2 indicates a more or less inflammatory process depending on which of these cytokines are increased. While the validity of this shift is questioned in different diseases and/or infections, the central role of T cells in the progression of inflammation is still evaluated on the cytokine release by these subsets of lymphocytes. Data was gathered throughout 24- and 48-hour time points for T-lymphocyte mediated release. Each experiment was repeated at least 3 times and data was presented as %-inhibition over the vehicle's effect of LPS-mediated cell activation.
# IL-2 = assay: CD3/CD28-activated cytokine release from human primary T-lymphocytes: IL-2; assay type: cell-based; conditions: 24 hour period; FIG. 8
# Method: (§5) Cytokine release from T-lymphocytes was measured and assessed in order to determine the anti-inflammatory effects of cetylated fatty acids such as 1-TDC and uncetylated fatty acids such as myristic acid. More specifically, the following compounds were tested: 1-TDC, 2-TDC, cetyl myristate (CM), myristic acid (MA), palmityl myristate (PM), palmityl oleate (PO), and palmityl myristoleate (PMO). For this experiment, peripheral blood mononuclear cells were isolated from healthy donors (n=8) with no known medication use by Ficoll-Hypaque density gradient centrifugation. Primary T-lymphocytes were separated from other mononuclear cells (e.g., monocytes) by negative selection using magnetic cell sorting (Dynal, Invitrogen) and pure cell cultures were treated with various doses of tested compounds for 30 minutes. The tested doses were 10^−5-10^−9M. […] Supernatants were collected at 24 and 48 hours and were stored at −80° C. until analyzed. […] The cytokine release was analyzed by xMAP multiplexing technology using Luminex 100 platform. […] The following T-lymphocyte associated cytokines: IFN-γ, IL-2, IL-10, IL-5, and IL-4 were assessed. […] While the validity of this shift is questioned in different diseases and/or infections, the central role of T cells in the progression of inflammation is still evaluated on the cytokine release by these subsets of lymphocytes. […]
# IL-1β = assay: LPS-activated cytokine release from human primary monocytes (xMAP Luminex): IL-1β; assay type: cell-based; conditions: 24 hours
# Method: as §1, §3, §4
# [1] = system: periodontal disease established by P. gingivalis; assay: Rabbit periodontal disease established by P. gingivalis, topical treatment; assay type: in vivo, New-Zealand White rabbits
# Text: Fifteen New-Zealand White rabbits are distributed into 3 groups: (1)
# No treatment (5 animals), (2) Placebo treatment (5 animals), and (3) myristic acid treatment (5 animals). In all animals, periodontal disease is established by P. gingivalis application every-other-day over a 6-week period. At 6 weeks, P. gingivalis application is terminated and topical use of the myristic acid and placebo agents is initiated for a second 6 weeks at which time animals are sacrificed. Morphometric, radiographic, and histologic evaluations are performed. Histologic sections are stained with hematoxylin-eosin, and tartrate-resistant acid phosphatase (TRAP) for descriptive histology and osteoclast activity. In addition, osteocalcin staining is used to detect osteoblast activity.
# MCP-1 = assay: LPS-activated cytokine release from human primary monocytes (xMAP Luminex): MCP-1; assay type: cell-based
# Method: as §1, §3, §4
# IL-10 = assay: CD3/CD28-activated cytokine release from human primary T-lymphocytes: IL-10; assay type: cell-based; conditions: 24 and 48 hours; FIG. 9
# Method: as §5
# IL-5 = assay: CD3/CD28-activated cytokine release from human primary T-lymphocytes: IL-5; assay type: cell-based; conditions: 24 and 48 hours; FIG. 11
# Method: as §5
# IL-4 = assay: CD3/CD28-activated cytokine release from human primary T-lymphocytes: IL-4; assay type: cell-based; conditions: 24 and 48 hours; FIG. 10
# Method: as §5
smiles,measurement,setting,value
"CCCCCCCCCCCCCC(=O)O [Myristic Acid, Myristic acid]","monocyte-mediated IL-12 release, inhibition",IL-12,significantly and dose dependently inhibited
same,antibacterial capacity (percentage of dead bacteria) compared with chlorhexidine,P. gingivalis A7436,comparable level of antibacterial capacity as seen with chlorhexidine
same,dose dependence of antibacterial activity against P. gingivalis,"P. gingivalis A7436; FIG. 2, increases dramatically at 0.1 mg/ml and higher doses (e.g., 1 mg/ml)",dose-dependent
same,"monocyte-mediated TNF-α release, inhibition (text)",TNF-α; 24 hours,all cytokines except TNF-α
same,"monocyte-mediated IL-6 release, inhibition",IL-6,significantly and dose dependently inhibited
same,"monocyte-mediated IL-8 release, inhibition",IL-8,significantly and dose dependently inhibited
same,activation of IFN-γ release by T-lymphocytes,IFN-γ; over 24 and 48 hours,capacity to activate IFN-γ release by T cells and this effect increased over time
same,effect on T-lymphocyte IL-2 production,IL-2,activated
same,"monocyte-mediated IL-1β release, inhibition",IL-1β,significantly and dose dependently inhibited
same,histomorphometric tissue and bone level vs placebo and no treatment,[1]; 6 weeks,significant changes in tissue and bone level
same,inflammatory changes in hematoxylin-eosin stained sections,[1]; 6 weeks,complete reversal of inflammatory changes
same,reformation of soft and bone tissues lost to periodontal inflammation,[1]; 6 weeks,reform soft and bone tissues
same,progression of gingival inflammation and bone destruction induced by P. gingivalis,[1]; 6 weeks after 6 weeks of disease induction,stops the progression
same,osteoclastic activity,"[1]; 6 weeks, TRAP staining",significantly suppresses
same,osteoblastic activity,"[1]; 6 weeks, osteocalcin staining",increased osteoblastic activity
same,"monocyte-mediated MCP-1 release, inhibition",MCP-1; 24 hours,significantly and dose dependently inhibited
"CCCCCCCCCCCCCCCCOC(=O)CCCCCCCCCCCCC [Palmityl Myristate, palmityl myristate]","monocyte-mediated TNF-α release, inhibition (text)","TNF-α; 24 hours, listed as palmityl myristate","blocked TNF-α release, however the inhibition was weaker compared to cetyl myristate"
"CCCCCCCCCCCCCCCCOC(=O)CCCCCCCCCCCCC [Cetyl Myristate, cetyl myristate]",T-lymphocyte release of IL-10 (activation),IL-10,most potent activator
same,IL-5 release by human T cells (activation),IL-5,most potent activator
same,"monocyte-mediated TNF-α release, inhibition (text)",TNF-α; 6 hours,inhibits
same,"monocyte-mediated TNF-α release, inhibition (text)","TNF-α; 24 hours, listed as Cetyl myristate",inhibition on TNF-α continued
same,"monocyte-mediated IL-8 release, inhibition",IL-8,inhibited
same,dose dependence of activation of T-cell IFN-γ release,IFN-γ; 10^−5-10^−9M,dose-dependent activation
same,IL-4 generation by human T cells (activation),IL-4,most potent compound tested
same,"monocyte-mediated MCP-1 release, inhibition",MCP-1; 6 hours,inhibited
same,"monocyte-mediated MCP-1 release, inhibition",MCP-1; 24 hours,inhibited
"CCCCCCCC/C=C\CCCCCCCC(=O)OCCCCCCCCCCCCCCCC [Palmityl Oleate, palmityl oleate]","monocyte-mediated TNF-α release, inhibition (text)",TNF-α; 24 hours,significantly and fully inhibited
same,effect on IFN-γ production by T-lymphocytes,IFN-γ; 24 hour mark,inhibit
same,"monocyte-mediated IL-1β release, inhibition",IL-1β,significantly and fully inhibited
CCCCCCCCCCCCCC(=O)[O-].[Na+] [sodium myristate],antibacterial capacity (percentage of dead bacteria) compared with chlorhexidine,P. gingivalis A7436,comparable level of antibacterial capacity as seen with chlorhexidine
"CCCC/C=C\CCCCCCCC(=O)OCCCCCCCCCCCCCCCC [Palmityl Myristoleate, palmityl myristoleate]","monocyte-mediated TNF-α release, inhibition (text)",TNF-α; 24 hours,significantly and fully inhibited
same,effect on IFN-γ production by T-lymphocytes,IFN-γ; 24 hour mark,inhibit
same,effect on IFN-γ production by T-lymphocytes,IFN-γ; 48 hour mark,inhibit
same,"monocyte-mediated IL-1β release, inhibition",IL-1β,significantly and fully inhibited
